ChEMBL document CHEMBL1201862, “PubChem BioAssay data set” (2004)
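Each compound was tested at five concentrations against cells in 96-well plates for 48 hours. Abbreviation: GI50, concentration required for 50% inhibition of growth.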 Active and inactive are the calls of the source. Rule as the data show it: active = GI50 up to about 1.1 µM and inactive = higher.

Key:
Assay in all cases: inhibition of tumour cell growth, NCI panel, 48 h
[1] = test system: HT-29
[2] = test system: SK-MEL-2
[3] = test system: HCT-15
[4] = test system: MOLT-4
[5] = test system: Hs-578T
[6] = test system: HCT-116
[7] = test system: OVCAR-4
[8] = test system: NCI/ADR-RES
[9] = test system: Malme-3M
[10] = test system: RPMI-8226
[11] = test system: HOP-62
[12] = test system: MCF7
[13] = test system: CAKI-1
[14] = test system: SNB-19
[15] = test system: COLO 205
[16] = test system: U-251
[17] = test system: EKVX
[18] = test system: A498
[19] = test system: SNB-75
[20] = test system: NCI-H522
[21] = test system: A549
[22] = test system: BT-549
[23] = test system: SN12C
[24] = test system: LOX IMVI
[25] = test system: SF-295
[26] = test system: HL-60
[27] = test system: SK-OV-3
[28] = test system: CCRF-CEM
[29] = test system: SK-MEL-5
[30] = test system: UACC-257
[31] = test system: MDA-MB-435
[32] = test system: OVCAR-5
[33] = test system: UO-31
[34] = test system: RXF 393
[35] = test system: HOP-92
[36] = test system: DU-145
[37] = test system: TK-10
[38] = test system: 786-0
[39] = test system: OVCAR-8
[40] = test system: MDA-MB-231
[41] = test system: NCI-H226
[42] = test system: SF-539
[43] = test system: M14
[44] = test system: K562
[45] = test system: OVCAR-3
[46] = test system: IGROV-1
[47] = test system: NCI-H23
[48] = test system: UACC-62
[49] = test system: ACHN
[50] = test system: SF-268
[51] = test system: SK-MEL-28
[52] = test system: T47D
[53] = test system: PC-3
[54] = test system: SW-620
[55] = test system: KM12
[56] = test system: SR
[57] = test system: NCI-H460
[58] = test system: HCC 2998

In the case of `CN(C)/C=N/c1c2ccccc2nc2ccccc12`, the GI50 [1] is reported as 3.06 µM (inactive), the GI50 [2] is reported as 2.69 µM (inactive) and the GI50 [3] is reported as 8.13 µM. For the same compound, the GI50 [4] was 2.59 µM (inactive), the GI50 [5] was 2.01 µM (inactive) and the GI50 [6] was 3.57 µM (inactive). For the same compound, the GI50 [7] was 6.64 µM (inactive), the GI50 [8] was 10.6 µM (inactive) and the GI50 [9] was 3.23 µM (inactive). For the same compound, the GI50 [10] was 1.79 µM (inactive), the GI50 [11] was 8.22 µM (inactive) and the GI50 [12] was 2.54 µM (inactive). The GI50 [13] was 18 µM (inactive), the GI50 [14] was 4.25 µM (inactive) and the GI50 [15] was 2.48 µM (inactive). For the same compound, the GI50 [16] was 4.17 µM (inactive), the GI50 [17] was 9.46 µM (inactive) and the GI50 [18] was 8 µM (inactive). The GI50 [19] was 3.74 µM (inactive), the GI50 [20] was 2.01 µM (inactive) and the GI50 [21] was 4.61 µM (inactive). For the same compound, the GI50 [22] was 3.06 µM (inactive), the GI50 [23] was 2.53 µM (inactive) and the GI50 [24] was 2.44 µM (inactive). The GI50 [25] was 5.7 µM (inactive), the GI50 [26] was 3.65 µM (inactive) and the GI50 [27] was 5.64 µM (inactive). For the same compound, the GI50 [28] was 4.21 µM (inactive), the GI50 [29] was 2.98 µM (inactive) and the GI50 [30] was 2.3 µM (inactive). For the same compound, the GI50 [31] was 4.21 µM (inactive), the GI50 [32] was 6.52 µM (inactive) and the GI50 [33] was 5.86 µM (inactive). The GI50 [34] was 4.34 µM (inactive), the GI50 [35] was 5.4 µM (inactive) and the GI50 [36] was 4.83 µM (inactive). For the same compound, the GI50 [37] was 7.16 µM (inactive), the GI50 [38] was 5.14 µM (inactive) and the GI50 [39] was 3.92 µM (inactive). For the same compound, the GI50 [40] was 5.77 µM (inactive), the GI50 [41] was 1.75 µM (inactive) and the GI50 [42] was 2.78 µM (inactive). The GI50 [43] was 5.37 µM (inactive), the GI50 [44] was 4.47 µM (inactive) and the GI50 [45] was 3.05 µM (inactive). For the same compound, the GI50 [46] was 4.23 µM (inactive), the GI50 [47] was 3.31 µM (inactive) and the GI50 [48] was 2.45 µM (inactive). For the same compound, the GI50 [49] was 5.02 µM (inactive), the GI50 [50] was 3.35 µM (inactive) and the GI50 [51] was 1.99 µM (inactive). For the same compound, the GI50 [52] was 2.65 µM (inactive) and the GI50 [53] was 2.98 µM (inactive).

With `C/C(=C\COP(=O)(O)OP(=O)(O)O)CC/C=C(\C)CNc1ccccc1` the GI50 [1] was > 50 µM (inactive), the GI50 [2] was > 50 µM (inactive) and the GI50 [3] was over 50 µM. For the same compound, the GI50 [4] was 20.1 µM (inactive), the GI50 [5] was 26.4 µM (inactive) and the GI50 [6] was > 50 µM (inactive). The GI50 [8] was > 50 µM (inactive), the GI50 [10] was 0.005 µM (active) and the GI50 [11] was > 50 µM (inactive). The GI50 [12] was > 50 µM (inactive), the GI50 [13] was > 50 µM (inactive) and the GI50 [14] was 48.1 µM (inactive). For the same compound, the GI50 [54] was > 50 µM (inactive), the GI50 [15] was > 50 µM (inactive) and the GI50 [16] was > 50 µM (inactive). For the same compound, the GI50 [17] was > 50 µM (inactive), the GI50 [55] was > 50 µM (inactive) and the GI50 [19] was 27.5 µM (inactive). For the same compound, the GI50 [20] was > 50 µM (inactive), the GI50 [21] was > 50 µM (inactive) and the GI50 [56] was 0.0893 µM (active). The GI50 [22] was 9.16 µM (inactive), the GI50 [23] was > 50 µM (inactive) and the GI50 [24] was > 50 µM (inactive). The GI50 [25] was > 50 µM (inactive), the GI50 [26] was 1.05 µM (active) and the GI50 [27] was > 50 µM (inactive). For the same compound, the GI50 [28] was 0.832 µM (active), the GI50 [29] was 26.9 µM (inactive) and the GI50 [30] was 43 µM (inactive). The GI50 [31] was > 50 µM (inactive), the GI50 [32] was > 50 µM (inactive) and the GI50 [57] was > 50 µM (inactive). The GI50 [33] was > 50 µM (inactive), the GI50 [34] was > 50 µM (inactive) and the GI50 [36] was > 50 µM (inactive). The GI50 [37] was 39.4 µM (inactive), the GI50 [38] was > 50 µM (inactive) and the GI50 [39] was > 50 µM (inactive). For the same compound, the GI50 [40] was > 50 µM (inactive), the GI50 [41] was > 50 µM (inactive) and the GI50 [42] was > 50 µM (inactive). For the same compound, the GI50 [43] was > 50 µM (inactive), the GI50 [44] was > 50 µM (inactive) and the GI50 [46] was 11 µM (inactive). The GI50 [48] was > 50 µM (inactive), the GI50 [49] was > 50 µM (inactive) and the GI50 [50] was > 50 µM (inactive). The GI50 [51] was > 50 µM (inactive), the GI50 [52] was 27.4 µM (inactive) and the GI50 [53] was > 50 µM (inactive).

With `CC(=O)OC(COc1ccc2c(c1)[n+]([O-])nc(N)[n+]2[O-])CN1CCCCC1` (stereo not drawn) the GI50 [1] was 11.1 µM (inactive), the GI50 [58] was 8.71 µM (inactive) and the GI50 [2] was 10.2 µM (inactive). The GI50 [3] was 7.89 µM, the GI50 [4] was 2.49 µM (inactive) and the GI50 [6] was 10.3 µM (inactive). The GI50 [7] was 30.7 µM (inactive), the GI50 [8] was 68.5 µM (inactive) and the GI50 [9] was 9.79 µM (inactive). The GI50 [10] was 5.58 µM (inactive), the GI50 [12] was 4.71 µM (inactive) and the GI50 [13] was 17.4 µM (inactive). For the same compound, the GI50 [14] was 22.3 µM (inactive), the GI50 [54] was 17.1 µM (inactive) and the GI50 [15] was 4.85 µM (inactive). For the same compound, the GI50 [16] was 13.5 µM (inactive), the GI50 [55] was 13.1 µM (inactive) and the GI50 [18] was 4.36 µM (inactive). For the same compound, the GI50 [19] was 18.2 µM (inactive), the GI50 [20] was 11.1 µM (inactive) and the GI50 [21] was 15.3 µM (inactive). The GI50 [56] was 12.2 µM (inactive), the GI50 [22] was 24.5 µM (inactive) and the GI50 [23] was 7.62 µM (inactive). For the same compound, the GI50 [26] was 5.12 µM (inactive), the GI50 [28] was 6.1 µM (inactive) and the GI50 [29] was 3.78 µM (inactive). For the same compound, the GI50 [30] was 12.5 µM (inactive), the GI50 [31] was 36 µM (inactive) and the GI50 [32] was 20.8 µM (inactive). For the same compound, the GI50 [57] was 3.97 µM (inactive), the GI50 [33] was 25.3 µM (inactive) and the GI50 [34] was 16.5 µM (inactive). For the same compound, the GI50 [35] was 17.4 µM (inactive), the GI50 [36] was 18.3 µM (inactive) and the GI50 [37] was 23.5 µM (inactive). For the same compound, the GI50 [38] was 9.98 µM (inactive), the GI50 [39] was 13.8 µM (inactive) and the GI50 [40] was 5.61 µM (inactive). The GI50 [41] was 15.3 µM (inactive), the GI50 [42] was 15.2 µM (inactive) and the GI50 [43] was 16.2 µM (inactive). For the same compound, the GI50 [44] was 7.69 µM (inactive), the GI50 [45] was 13.6 µM (inactive) and the GI50 [47] was 12.4 µM (inactive). For the same compound, the GI50 [49] was 6.79 µM (inactive), the GI50 [50] was > 10 µM (inactive) and the GI50 [51] was 24.5 µM (inactive). The GI50 [53] was 1.52 µM (inactive).
